The NIST ThermoML archive (doi:10.1021/je7007022)

Experiment: excess molar enthalpy (molar enthalpy of mixing); xn = mol fraction of the nth substance listed
Settings: 303.15 K, 101 kPa, Liquid, Flow calorimetry

O=CO [formic acid] + C1COCCO1
Settings | excess molar enthalpy [kJ/mol]
x2 = 0.056 | -0.211
x2 = 0.114 | -0.402
x2 = 0.225 | -0.813
x2 = 0.301 | -1.15
x2 = 0.383 | -1.47
x2 = 0.472 | -1.68
x2 = 0.58 | -1.75
x2 = 0.705 | -1.48
x2 = 0.762 | -1.15
x2 = 0.836 | -0.762
x2 = 0.917 | -0.24
